Results published in a compilation of properties of binary mixtures (doi:10.1016/j.fluid.2019.112447).

Assay: xn = mol fraction of the nth substance listed
Conditions: 101 kPa

CCOS(=O)(=O)[O-].CC[n+]1ccn(C)c1 + CCC(C)O
viscosity [mPa·s]
Conditions	x1 = 0.1032	x1 = 0.2027	x1 = 0.2937	x1 = 0.3936	x1 = 0.4906	x1 = 0.5916	x1 = 0.6944	x1 = 0.7957	x1 = 0.8916	x1 = 1
298.15 K	4.62	–	9.73	14.02	19.79	28.15	–	–	71.7	96.2
303.15 K	4.29	–	9.16	12.67	–	24	33	44	–	75.9
308.15 K	3.46	5.31	7.53	–	14.29	20.49	27.81	36.7	–	60.7
313.15 K	2.94	–	6.51	–	13.06	–	23.65	30.7	38.7	–
318.15 K	2.56	–	5.76	8.37	11.43	15.38	20.32	26.1	32.5	40.9
323.15 K	2.03	3.36	–	7.36	10.09	13.57	17.64	22.35	27.4	33.8

CC[n+]1ccn(C)c1.O=S(=O)([O-])C(F)(F)F + CCC(C)O
viscosity [mPa·s]
Conditions	x1 = 0.1092	x1 = 0.1945	x1 = 0.2945	x1 = 0.3938	x1 = 0.4988	x1 = 0.5952	x1 = 0.6907	x1 = 0.7986	x1 = 0.903	x1 = 1
298.15 K	3.95	5.32	6.57	7.9	10.59	15.33	22.63	–	39.43	–
303.15 K	3.47	4.65	5.76	–	–	–	19.37	–	33.21	38.31
308.15 K	3.09	4.1	5.07	–	8.23	11.65	16.75	22.22	–	32.28
313.15 K	2.75	–	4.51	5.5	–	–	–	19.09	24.05	–
318.15 K	2.46	3.24	4.03	4.94	–	9.13	12.84	16.7	–	23.86
323.15 K	2.21	2.9	3.61	4.44	5.91	8.17	–	14.66	–	20.75

CCC(C)O (centres undefined) + CCOS(=O)(=O)[O-].CC[n+]1ccn(C)c1
x2 = 0
Conditions	viscosity [mPa·s]
298.15 K	2.58
303.15 K	2.27
313.15 K	1.77
318.15 K	1.58
323.15 K	1.41

CCC(C)O (centres undefined) + CC[n+]1ccn(C)c1.O=S(=O)([O-])C(F)(F)F
x2 = 0
Conditions	viscosity [mPa·s]
298.15 K	2.58
303.15 K	2.27
313.15 K	1.77
318.15 K	1.58
323.15 K	1.41
